Source: patent publication US8673938B2, “Chemical compounds” (priority 2006, dated 2014)

Target: human 11βHSD1 enzyme (Homo sapiens (Human), UniProt P28845)
Assay: biochemical
Settings: read-out: % inhibition of human 11-βHSD

human 11βHSD1 enzyme, sequence (P28845 whole entry): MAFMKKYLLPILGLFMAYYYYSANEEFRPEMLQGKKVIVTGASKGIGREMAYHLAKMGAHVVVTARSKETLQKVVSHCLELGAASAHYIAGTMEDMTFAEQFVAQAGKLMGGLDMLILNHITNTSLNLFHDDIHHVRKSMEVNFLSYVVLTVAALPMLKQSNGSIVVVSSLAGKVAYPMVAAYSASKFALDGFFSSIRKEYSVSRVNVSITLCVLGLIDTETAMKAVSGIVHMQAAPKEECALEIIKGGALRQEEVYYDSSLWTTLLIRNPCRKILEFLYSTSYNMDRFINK

## CCCSc1nc(N2CC[C@@H](CC(=O)O)C2)ccc1C(=O)N[C@H]1C2CC3CC1C[C@](OC(F)F)(C3)C2 [Example 180, 2-[(3S)-1-[5-[[(2r,5s)-5-(Difluoromethoxy)-2-adamantyl]carbamoyl]-6-propylsulfanyl-pyridin-2-yl]pyrrolidin-3-yl]acetic acid]
  inhibition at 30 µM: 95%

## O=C(O)C[C@@H]1CCCN(c2ccc(C(=O)NC3CCCCC3)c(N3CCN(c4ccccc4)CC3)n2)C1 [compound 145, 2-[(3S)-1-[5-(cyclohexylcarbamoyl)-6-(4-phenylpiperazin-1-yl)pyridin-2-yl]-3-piperidyl]acetic acid]
  inhibition at 30 µM: 84%

## CCCSc1nc(N2CC[C@@H](C(=O)O)C2)ccc1C(=O)NC1C2CC3CC(C2)CC1C3 (stereo partly drawn) [Example 63, (3R)-1-[5-(2-adamantylcarbamoyl)-6-propylsulfanyl-pyridin-2-yl]pyrrolidine-3-carboxylic acid]
  inhibition at 30 µM: 91%

## CCCSc1nc(N2CCC[C@@H](CC(=O)O)C2)ccc1C(=O)N(CC)C1CCCCC1 [Example 123, 2-[(3S)-1-[5-(cyclohexyl-ethyl-carbamoyl)-6-propylsulfanyl-pyridin-2-yl]-3-piperidyl]acetic acid]
  inhibition at 30 µM: 94%

## CCCSc1nc(Sc2cccc(C(=O)O)c2)ccc1C(=O)NC1CCCCC1 [Example 14, 3-[5-(cyclohexylcarbamoyl)-6-propylsulfanyl-pyridin2-yl]sulfanylbenzoic acid]
  inhibition at 30 µM: 78%

## CCCSc1nc(N2CCC[C@@H](CC(=O)O)C2)ccc1C(=O)N1CCC(c2cccnc2)C1 (stereo partly drawn) [Example 113, 2-[(3S)-1-[6-propylsulfanyl-5-(3-pyridin-3-ylpyrrolidine-1-carbonyl)pyridin-2-yl]-3-piperidyl]acetic acid]
  inhibition at 30 µM: 90%

## O=C(NC1CCCCC1)c1ccc(N2CCCC(C3(C(=O)O)CC3)C2)nc1SC1CCCC1 (stereo not drawn) [Example 56, 1-[1-[5-(cyclohexylcarbamoyl)-6-cyclopentylsulfanyl-pyridin-2-yl]-3-piperidyl]cyclopropane-1-carboxylic acid]
  inhibition at 30 µM: 97%

## CC(=O)N1CCN(c2nc(N3CCC[C@@H](CC(=O)O)C3)ccc2C(=O)NC2CCCCC2)CC1 [compound 147, 2-[(3S)-1-[6-(4-acetylpiperazin-1-yl)-5-(cyclohexylcarbamoyl)pyridin-2-yl]-3-piperidyl]acetic acid]
  inhibition at 30 µM: 86%

## CCCSc1nc(N2CCCC(OCC(=O)O)C2)ccc1C(=O)NC1CCCCC1 (stereo not drawn) [Example 46]
  inhibition at 30 µM: 83%

## CCCSc1nc(N2CCC[C@@H](CC(=O)O)C2)ccc1C(=O)N1CCCCC1 [Example 115, 2-[(3S)-1-[5-(piperidine-1-carbonyl)-6-propylsulfanyl-pyridin-2-yl]-3-piperidyl]acetic acid]
  inhibition at 30 µM: 93%

## CCCSc1nc(N2CCC[C@@H](CC(=O)O)C2)ccc1C(=O)N1CCC(C(F)(F)F)CC1 [Example 119, 2-[(3S)-1-[6-propylsulfanyl-5-[4-(trilfuoromethyl)piperidine-1-carbonyl]pyridin-2-yl]-3-piperidyl]acetic acid]
  inhibition at 30 µM: 99%

## O=C(O)C[C@@H]1CCCN(c2ccc(C(=O)N[C@H]3C4CC5CC3C[C@@](O)(C5)C4)c(SC3CCCCC3)n2)C1 [Example 103]
  inhibition at 30 µM: 90%

## CCCSc1nc(N2CCC(C3(C(=O)O)CCC3)CC2)ccc1C(=O)NC1CCCCC1 [Example 49, 1-[1-[5-(cyclohexylcarbamoyl)-6-propylsulfanyl-pyridin-2-yl]-4-piperidyl]cyclobutane-1-carboxylic acid]
  inhibition at 30 µM: 77%

## CCCSc1nc(N2CCC(C(=O)O)CC2)ccc1C(=O)N[C@H]1C2CC3CC1C[C@@](O)(C3)C2 [Example 84, 1-[5-[[(2r,5s)-5-hydroxy-2-adamantyl]carbamoyl]-6-propylsulfanyl-pyridin-2-yl]piperidine-4-carboxylic acid]
  inhibition at 30 µM: 101%

## O=C(O)CO[C@H]1CCN(c2ccc(C(=O)NC3C4CC5CC(C4)CC3C5)c(SC3CCCC3)n2)C1 (stereo partly drawn) [Example 69, 2-[(3S)-1-[5-(2-adamantylcarbamoyl)-6-cyclopentylsulfanyl-pyridin-2-yl]pyrrolidin-3-yl]oxyacetic acid]
  inhibition at 30 µM: 91%

## CCCSc1nc(N2CCC[C@@H](CC(=O)O)C2)ccc1C(=O)N[C@H]1C2CC3CC1C[C@](OC(F)F)(C3)C2 [Example 179, 2-[(3S)-1-[5-[[(2r,5s)-5-(Difluoromethoxy)-2-adamantyl]carbamoyl]-6-propylsulfanyl-pyridin-2-yl]-3-piperidyl]acetic acid]
  inhibition at 30 µM: 87%

## O=C(N[C@H]1C2CC3CC1C[C@](O)(C3)C2)c1ccc(N2CC[C@@H](C(=O)O)C2)nc1SC1CCCCC1 [Example 102, (3R)-1-[6-cyclohexylsulfanyl-5-[((2r,5s)-5-hydroxy-2-adamantyl)carbamoyl]pyridin-2-yl]pyrrolidine-3-carboxylic acid]
  inhibition at 30 µM: 89%

## CCCSc1nc(N2CCC[C@@H](CC(=O)O)C2)ccc1C(=O)N1CCCC(C(F)(F)F)C1 (stereo partly drawn) [Example 118, 2-[(3S)-1-[6-propylsulfanyl-5-[3-(trifluoromethyl)-piperidine-1-carbonyl]pyridin-2-yl]-3-piperidyl]acetic acid]
  inhibition at 30 µM: 101%

## CCCSc1nc(N2CC[C@@H](CC(=O)O)C2)ccc1C(=O)NC1C2CC3CC(C2)CC1C3 (stereo partly drawn) [Example 62, 2-[(3S)-1-[5-(2-adamantylcarbamoyl)-6-propylsulfanyl-pyridin-2-yl]pyrrolidin-3-yl]acetic acid]
  inhibition at 30 µM: 89%

## CCCSc1nc(Oc2ccc(C(=O)O)cc2)ccc1C(=O)NC1CCCCC1 [Example 16, 4-[5-(cyclohexylcarbamoyl)-6-propylsulfanyl-pyridin-2-yl]oxybenzoic acid]
  inhibition at 30 µM: 43%

## CCCSc1nc(N2CCC(C(C)C(=O)O)CC2)ccc1C(=O)NC1CCCCC1 (stereo not drawn) [Example 28, 2-[1-[5-(cyclohexylcarbamoyl)-6-propylsulfanyl-pyridin-2-yl]-4-piperidyl]propanoic acid]
  inhibition at 30 µM: 86%

## O=C(O)C[C@@H]1CCCN(c2ccc(C(=O)NC3CCCCC3)c(OCCc3ccc(F)cc3)n2)C1 [compound 135, 2-[(3S)-1-[5-(cyclohexyl-carbamoyl)-6-[2-(4-fluorophenyl)ethoxy]pyridin-2-yl]-3-piperidyl] acetic acid]
  inhibition at 30 µM: 92%

## CCCSc1nc(N2CCC[C@@H](CC(=O)O)C2)ccc1C(=O)N1CCC(c2ccccc2C(F)(F)F)C1 (stereo partly drawn) [Example 126, 2-[(3S)-1-[6-propylsulfanyl-5-[3-[2-(trifluoromethyl)phenyl]pyrrolidine-1-carbonyl]pyridin-2-yl]-3-piperidyl]acetic acid]
  inhibition at 30 µM: 87%

## CCCSc1nc(N2CCC[C@@H](CC(=O)O)C2)ccc1C(=O)N1CCC(c2cnccn2)C1 (stereo partly drawn) [Example 116, 2-[(3S)-1-[6-propylsulfanyl-5-(3-pyrazin-2-ylpyrrolidine-1-carbonyl)pyridin-2-yl]-3-piperidyl]acetic acid]
  inhibition at 30 µM: 89%

## CCCSc1nc(N2CCC[C@@H](CC(=O)O)C2)ccc1C(=O)NC1C2CC3CC(C2)CC1C3 (stereo partly drawn) [Example 59, 2-[(3S)-1-[5-(2-adamantylcarbamoyl)-6-propylsulfanyl-pyridin-2-yl]-3-piperidyl]acetic acid]
  inhibition at 30 µM: 94%

## CCCSc1nc(Sc2ccc(OCC(=O)O)cc2)ccc1C(=O)NC1CCCCC1 [Example 19, 2-[4-[5-(cyclohexylcarbamoyl)-6-propylsulfanyl-pyridin-2-yl]sulfanylphenoxy]acetic acid]
  inhibition at 30 µM: 61%

## CCCSc1nc(N2CCC[C@@H](CC(=O)O)C2)ccc1C(=O)N(C)C1CCOCC1 [Example 174, [(3S)-1-{5-[Methyl(tetrahydro-2H-pyran-4-yl)carbamoyl]-6-(propylthio)pyridin-2-yl}piperidin-3-yl]acetic acid]
  inhibition at 30 µM: 92%

## CCCSc1nc(N2CCC(C(=O)O)C2)ccc1C(=O)N[C@H]1C2CC3CC1C[C@](OC(F)F)(C3)C2 (stereo partly drawn) [Example 185, 1-[5-[[(2r,5S)-5-(difluoromethoxy)-2-adamantyl]carbamoyl]-6-propylsulfanyl-pyridin-2-yl]pyrrolidine-3-carboxylic acid]
  inhibition at 30 µM: 97%

## CCCSc1nc(N2CCC[C@@H](CC(=O)O)C2)ccc1C(=O)NC12CC3CC(CC(C3)C1)C2 [Example 172, {(3S)-1-[5-(Adamantan-1-ylcarbamoyl)-6-(Propylthio)pyridin-2-yl]piperidin-3-yl}acetic acid]
  inhibition at 30 µM: 88%

## CCCSc1nc(Oc2ccc(OCC(=O)O)cc2)ccc1C(=O)NC1CCCCC1 [Example 20, 2-[4-[5-(cyclohexylcarbamoyl)-6-propylsulfanyl-pyridin-2-yl]oxyphenoxy]acetic acid]
  inhibition at 30 µM: 89%

## CCCSc1nc(N2CCC[C@H]2C(=O)O)ccc1C(=O)NC1CCCCC1 [Example 27, (2S)-1-[5-(cyclohexylcarbamoyl)-6-propylsulfanyl-pyridin-2-yl]pyrrolidine-2-carboxylic acid]
  inhibition at 30 µM: 94%

## CCCSc1nc(N2CCC(C(=O)O)C2)ccc1C(=O)N[C@H]1C2CC3CC1C[C@@](O)(C3)C2 (stereo partly drawn) [Example 89, 1-[5-[[(2r,5s)-5-hydroxy-2-adamantyl]carbamoyl]-6-propylsulfanyl-pyridin-2-yl]pyrrolidine-3-carboxylic acid]
  inhibition at 30 µM: 85%

## COc1nc(N2CCC[C@@H](CC(=O)O)C2)ccc1C(=O)NC1CCCCC1 [compound 139, 2-[(3S)-1-[5-(cyclohexyl-carbamoyl)-6-methoxy-pyridin-2-yl]-3-piperidyl] acetic acid]
  inhibition at 30 µM: 89%

## CCCSc1nc(N2CCC(CC(=O)O)CC2)ccc1C(=O)N[C@H]1C2CC3CC1C[C@@](O)(C3)C2 [Example 86, 2-[1-[5-[[(2r,5s)-5-hydroxy-2-adamantyl]carbamoyl]-6-propylsulfanyl-pyridin-2-yl]-4-piperidyl]acetic acid]
  inhibition at 30 µM: 90%

## CCCSc1nc(N2CCC(OCC(=O)O)C2)ccc1C(=O)NC1CCCCC1 (stereo not drawn) [Example 43, 2-[1-[5-(cyclohexylcarbamoyl)-6-propylsulfanyl-pyridin-2-yl]pyrrolidin-3-yl]oxyacetic acid]
  inhibition at 30 µM: 92%

## CCCSc1nc(N2CCC[C@@H](CC(=O)O)C2)ccc1C(=O)N(CC1CC1)C1CCCCC1 [Example 122, 2-[(3S)-1-[5-(cyclohexyl-(cyclopropylmethyl)carbamoyl)-6-propylsulfanyl-pyridin-2-yl]-3-piperidyl]acetic acid]
  inhibition at 30 µM: 88%
